PMC10301603, “Potent and Selective Benzothiazole-Based Antimitotics with Improved Water Solubility: Design, Synthesis, and Evaluation as Novel Anticancer Agents” (Pharmaceutics, 2023)
pIC50: −log10 of the molar value. Converted amounts (≈) assume the structure as drawn.

Columns and labels:
[1] = Aqueous solubility, shake-flask method; assay type: physicochemical; conditions: pH 7.0 buffer, pH 7, aqueous buffer, thermodynamic from solid, shaking flask, buffered media at pH 7.0, mean of three
Method: The aqueous solubility of compounds was measured in a Helios Alfa Spectrophotometer. Calibration lines at the maximum wavelength of absorbance were determined for each compound. Then, following the shake-flask method, a suspension of 5 mg of each compound in 500 µL in pH 7.0 buffer was stirred for 72 h at room temperature. The mixture was then filtrated over a […] filter to remove the insoluble fraction. The concentration of the compound in the resulting saturated solution was determined via UV absorbance measurement and interpolation in the calibration line. The aqueous solubility values are given as the average of three independent measurements.

PC-3 cells = test: Cell growth inhibition assay (MTT); assay type: cell-based, human; conditions: Homo sapiens, PC-3, 72 h after drug exposure
Method: (§1) The cell lines were obtained from ATTC (Manassas, VA, USA). HeLa (human cervix epithelioid carcinoma), MCF7 (human breast adenocarcinoma), HepG2 (human hepatocellular carcinoma), U87 MG (human glioblastoma), T98G (human glioblastoma), GL261 (murine glioma), LNCaP (human prostate cancer), PC-3 (human prostate cancer), and HEK-293 (human embryonic kidney) were grown in Dulbecco’s modified Eagle’s medium (DMEM, Gibco, Waltham, MA, USA), supplemented with 10% (v/v) heat-inactivated fetal bovine serum (HIFBS, Sigma-Aldrich, St. Louis, MO, USA)), 2 mM L-glutamine, 100 μg/mL streptomycin, and 100 units/mL penicillin (Gibco, Waltham, MA, USA) at 37 °C in saturated humidity atmosphere containing 95% air and 5% CO2. Cell line HT-29 (human colon carcinoma) was grown in Roswell Park Memorial Institute (RPMI) 1640 medium (Gibco, Whaltman, MA, USA) supplemented with 10% HIFBS, 100 μg/mL streptomycin, and 100 units/mL penicillin (Gibco, Whaltman, MA, USA) at 37 °C in humidified 95% air and 5% CO2 atmosphere. MycoAlert kit (Lonza, Norwest, Australia) was used to routinely check the presence of mycoplasma, and only mycoplasma-free cells were employed in the experiments.
(§2) Cells were plated in 96-well plates (100 µL/well) at the following concentrations: 30,000 cells/mL (HepG2, U87 MG, T98G, C6, LNCaP, PC3, and HT-29 cells) or 15,000 cells/mL (HeLa and MCF-7 cells). Previous experiments were performed to choose the optimal cell concentration (70–80% confluence) and avoid the formation of cell aggregates. Cells were incubated in complete DMEM or RPMI 1640 medium (see above) at 37 °C and 5% CO2 atmosphere for 24 h to allow for cell attachment to the plate. Then, every compound was added (10 µL/well) to a final concentration of 10 µM. Non-treated cells were used as negative controls. The antiproliferative activity of compounds was measured 72 h after the treatments using the MTT reagent (3-[4,5-dimethylthiazol-2-yl]-2,5-diphenyltetrazolium bromide), (MTT Thiazolyl Blue Tetrazolium Bromide, Sigma-Aldrich, St. Louis, MO, USA) dissolved in PBS at 5 mg/mL. Compounds showing antiproliferative effects at 10 µM were selected to determine their IC50 value. For that purpose, compounds were used at different concentrations ranging from 10^−10 to 10^−2 M. Measurements were performed in triplicate, and each experiment was repeated three times. The IC50 value was determined for every compound using Origin software (OriginLab, Washington, USA). To study the sensitivity to MDR efflux pumps of compounds, the IC50 values were determined by following the same procedure but in the presence of verapamil (final concentration of 10 µM).

T98G cells = test: Cell growth inhibition assay (MTT); assay type: cell-based, human; conditions: Homo sapiens, T98G, 72 h after drug exposure
Method: as §1, §2

MCF7 cells = test: Cell growth inhibition assay (MTT); assay type: cell-based, human; conditions: Homo sapiens, MCF7; MTT, 72 h after drug exposure
Method: as §1, §2

HepG2 cells = test: Cell growth inhibition assay (MTT); assay type: cell-based, human; conditions: Homo sapiens, HepG2, 72 h after drug exposure
Method: as §1, §2

LNCaP cells = test: Cell growth inhibition assay (MTT); assay type: cell-based, human; conditions: Homo sapiens, LNCaP, 72 h after drug exposure
Method: as §1, §2

HeLa cells = test: Cell growth inhibition assay (MTT); assay type: cell-based, human; conditions: Homo sapiens, HeLa, 72 h after drug exposure
Method: as §1, §2

HT-29 cells [2] = test: Cell growth inhibition assay (MTT); assay type: cell-based, human; conditions: Homo sapiens, HT-29, 72 h after drug exposure
Method: as §1, §2

U87MG cells = test: Cell growth inhibition assay (MTT); assay type: cell-based, human; conditions: Homo sapiens, U-87 MG; MTT, 72 h after drug exposure
Method: as §1, §2

HEK-293 cells = test: Cell growth inhibition assay (MTT), non-tumorigenic cells; assay type: cell-based, human; conditions: Homo sapiens, HEK293, 72 h after drug exposure, non-tumorigenic cell line
Method: as §1, §2

HT-29 cells [3] = test: Cell growth inhibition (MTT) in the presence of 10 µM verapamil (sensitivity to MDR efflux pumps); assay type: cell-based, human; conditions: 10 µM verapamil (P-gp/MDR1 inhibitor)
Method: as §2

bovine brain tubulin = test: Tubulin polymerization inhibition (turbidimetry); assay type: biochemical; conditions: for Tubulin polymerization inhibition (in words): 10 µM; for % TPI: compounds tested at 10 µM, with respect to the negative control; for pIC50: concentration inhibiting 50% of microtubular protein polymerization in vitro, read-out: TPI IC50
Method: Microtubular protein was isolated from calf brain following the modified Shelanski method, based on temperature-dependent assembly/disassembly of tubulin [45]. The protein was stored at −80 °C, and its concentration was determined using the Bradford method before each use. Tubulin polymerization, which occurs when heating a buffered tubulin sample from 4 °C to 37 °C, is accompanied by an increase in the absorbance (at 450 nm) of the sample that was monitored by a Helios α spectrophotometer. […] Then, the temperature was adjusted to 4 °C, and the temperature being shifted to 37 °C allowed for the assembly process of tubulin. The turbidity caused by tubulin polymerization was measured by the increased absorbance at 450 nm. The increase in absorbance obtained for the control sample (without the ligand), which we considered to be 100% tubulin polymerization (0% inhibition), compared with the increase in absorbance determined for the sample containing ligands yielded the degree of tubulin polymerization inhibition (TPI), which is expressed as a percentage value. For the compounds displaying TPI values over 50% at 10 µM, the IC50 value for TPI was calculated. Measurements were performed in triplicate in two independent experiments using microtubular protein from different preparations.

GL261 cells = test: Cell growth inhibition assay (MTT); assay type: cell-based, murine; conditions: Mus musculus, GL261, 72 h after drug exposure
Method: as §1, §2

Row | solubility at 72 h [1] [µg/mL] | pIC50 (PC-3 cells) | pIC50 (MCF7 cells) | pIC50 (HepG2 cells) | pIC50 (LNCaP cells) | pIC50 (HeLa cells) | pIC50 (HT-29 cells [2]) | pIC50 (U87MG cells) | pIC50 (HT-29 cells [3]) | pIC50 (bovine brain tubulin) | SMILES | pIC50 (T98G cells) | pIC50 (HEK-293 cells) | Tubulin polymerization inhibition (in words) (bovine brain tubulin) | % TPI (bovine brain tubulin) [%] | pIC50 (GL261 cells)
1 | < 9 | < 5.00 | < 5.00 | < 5.00 | < 5.00 | < 5.00 | < 5.00 | < 5.00 | < 5.00 | < 5.00 | CCNC(=O)N(Cc1ccc2ccccc2c1)c1nc2ccc(OC)cc2s1 [Compound 12, 3-ethyl-1-(6-methoxybenzo[d]thiazol-2-yl)-1-(naphthalen-2-ylmethyl)urea] | < 5.00 | < 5.00 | not able to inhibit tubulin polymerization | 0 | < 5.00
2 | 165 (≈ 546 µM) | < 5.00 | < 5.00 | < 5.00 | < 5.00 | < 5.00 | < 5.00 | < 5.00 | < 5.00 | < 5.00 | COc1ccc2nc(N(C=O)Cc3[nH]cnc3C)sc2c1 [Compound 16, N-(6-methoxybenzo[d]thiazol-2-yl)-N-((4-methyl-1H-imidazol-5-yl)methyl)formamide] | < 5.00 | < 5.00 | not able to inhibit tubulin polymerization | 0 | < 5.00
3 | 12 (≈ 40.2 µM) | < 5.00 | 5.30 | 5.26 | 5.40 | 5.47 | < 5.00 | 5.28 | < 5.00 | < 5.00 | COc1ccc2nc(N(C=O)Cc3ccccc3)sc2c1 [Compound 17, N-benzyl-N-(6-methoxybenzo[d]thiazol-2-yl)formamide] | < 5.00 | < 5.00 | – | 4 | 5.19
4 | < 9 | < 5.00 | < 5.00 | < 5.00 | < 5.00 | < 5.00 | < 5.00 | < 5.00 | < 5.00 | < 5.00 | COc1ccc2nc(N(C=O)Cc3ccc4ccccc4c3)sc2c1 [Compound 18, N-(6-methoxybenzo[d]thiazol-2-yl)-N-(naphthalen-2-ylmethyl)formamide] | < 5.00 | < 5.00 | not able to inhibit tubulin polymerization | 0 | < 5.00
5 | 87 (≈ 278 µM) | 5.52 | 5.69 | 5.73 | 5.68 | 5.81 | 5.60 | 5.85 | 5.53 | < 5.00 | COc1ccc2nc(N(Cc3ccccn3)C(C)=O)sc2c1 [Compound 19, N-(6-methoxybenzo[d]thiazol-2-yl)-N-(pyridin-2-ylmethyl)acetamide] | 5.61 | < 5.00 | – | 43 | 5.86
6 | 93 (≈ 297 µM) | 5.79 | 6.04 | 6.09 | 5.86 | 5.99 | 5.82 | 6.20 | 5.83 | 5.09 | COc1ccc2nc(N(Cc3cccnc3)C(C)=O)sc2c1 [Compound 20, N-(6-methoxybenzo[d]thiazol-2-yl)-N-(pyridin-3-ylmethyl)acetamide] | 6.08 | 5.00 | – | 57 | 6.21
7 | 90 (≈ 287 µM) | 5.58 | 5.71 | 5.83 | 5.74 | 5.91 | 5.65 | 5.90 | 5.59 | < 5.00 | COc1ccc2nc(N(Cc3ccncc3)C(C)=O)sc2c1 [Compound 21, N-(6-methoxybenzo[d]thiazol-2-yl)-N-(pyridin-4-ylmethyl)acetamide] | 5.64 | < 5.00 | – | 41 | 5.80
8 | 171 (≈ 540 µM) | < 5.00 | < 5.00 | < 5.00 | < 5.00 | < 5.00 | < 5.00 | < 5.00 | < 5.00 | < 5.00 | COc1ccc2nc(N(Cc3[nH]cnc3C)C(C)=O)sc2c1 [Compound 22, N-(6-methoxybenzo[d]thiazol-2-yl)-N-((4-methyl-1H-imidazol-5-yl)methyl)acetamide] | < 5.00 | < 5.00 | not able to inhibit tubulin polymerization | 0 | < 5.00
9 | 13 (≈ 41.6 µM) | < 5.00 | 5.20 | 5.37 | 5.31 | 5.41 | < 5.00 | 5.12 | < 5.00 | < 5.00 | COc1ccc2nc(N(Cc3ccccc3)C(C)=O)sc2c1 [Compound 23, N-benzyl-N-(6-methoxybenzo[d]thiazol-2-yl)acetamide] | < 5.00 | < 5.00 | – | 3 | 5.20
10 | < 9 | < 5.00 | < 5.00 | < 5.00 | < 5.00 | < 5.00 | < 5.00 | < 5.00 | < 5.00 | < 5.00 | COc1ccc2nc(N(Cc3ccc4ccccc4c3)C(C)=O)sc2c1 [Compound 24, N-(6-methoxybenzo[d]thiazol-2-yl)-N-(naphthalen-2-ylmethyl)acetamide] | < 5.00 | < 5.00 | not able to inhibit tubulin polymerization | 0 | < 5.00
